From US20130251743A1, “Fungal extracts and uses thereof” (CERMEDI OY, priority 2010, published 2013) come the findings set out here.

In the assay the test system is human retinal pigment epithelial cells (hRPE). The assay is described as follows: WST-1 cytotoxicity test of hRPE cells exposed to hydrogen peroxide-induced oxidative stress. The note with it: ARPE-19 cells exposed to H2O2. Format: cell-based. On the procedure:
Human ARPE-19 retinal pigment epithelial cells (RPE) were obtained from American Type Culture Collection (USA). The cells were grown to confluency in a standard incubator in appropriate Dulbecco's MEM/Nut MIX F-12 medium (Gibco, UK). Oxidative stress was applied to the cells (1×10^4 cells/well) by using various concentrations of H2O2. Cytotoxicity was evaluated by two cytotoxicity tests, WST-1 test. WST-1 test reagent was purchased from Roche, Basel, Switzerland. WST-1 test is based on the cleavage of the tetrazolium salt WST-1 (4-*3-(4-iodophenyl)-2-(4-nitrophenyl)-2H-5-tetrazolio*-1,3-benzene disulfonate, slightly red) to formazan (dark red) by various mitochondrial dehydrogenase enzymes. The mean optical density values corresponding to the non-treated controls were taken as 100%. The results were expressed as percentages of the optical density of treated vs. untreated controls. Dose-response curves were drawn from the results expressed as mean±standard error of mean (SEM) by Graph Pad Prism software (GraphPad™, San Diego, US) using non-linear regression analysis. […] The statistical significance of the differences between the cultures exposed to H2O2 and tested extracts without or with serum was determined with the Student's two-tailed t-test (GraphPad Prism). […]
In general terms: Tetrazolium assays rely on reduction of a dye to a coloured formazan, in cell work by metabolically active cells.

In the case of `COc1cc(C[C@@H](CO)[C@H](CO)Cc2ccc(O)c(OC)c2)ccc1O` [secoisolariciresinol (SECO), secoisolariciresinol], the “protection of hRPE cells against oxidative damage (WST-1 test)” value is “did not protect hRPE cells from oxidative damage”.
